Laboratory results: patent publication US20170008888A1 (KYORIN PHARMACEUTICAL CO., LTD., priority 2014, published 2017)
Read-outs that look alike come from different tables or passages of the source.

Columns and labels:
[1] = system: AurB or AurC; assay: Probe-based (AX9989) kinase profiling in Jurkat lysate: AurB or AurC; assay type: binding; conditions: for AurB or AurC Inhibition % at indicated screening concentration: screening concentration 1 μM
Procedure, shortened: (§1)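 Read-out: LC/MS intensity of desthiobiotinylated kinase active-site peptides, percent inhibition normalized to no-compound lysate. Jurkat lysate with 20 mM MnCl2 received compound for 15 min at room temperature, then 5 μM AX9989 probe; duplicates.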

[2] = system: human PBMCs; assay: Human PBMC TNF-α response to endotoxin (ELISA); assay type: cell-based; conditions: 0.1 μg/ml LPS 16 h, read-out: EC50 for the inhibition of the human PBMC TNF-α response to endotoxin, ave. ± S.D.
Procedure, shortened: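 PBMCs at 2e6 cells/ml in RPMI 1640 with 10% charcoal-dextran-treated FBS were pre-treated 1 h at 37 °C with compound (4-point 1:5 dilution from 10 μM). Stimulation with 0.1 μg/ml E. coli 0111:B4 LPS for 16 h; TNF-α measured by ELISA (A450) in 25-fold diluted supernatant.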

[3] = molecular target: T1, ERK5 (Homo sapiens, UniProt Q13164); assay: Probe-based (AX9989 acyl phosphate ATP probe) kinase profiling in Jurkat lysate: ERK5; assay type: binding; conditions: for IC50: Jurkat lysate
T1 construct: screened for activity against several kinases in Jurkat cells; endogenous in cells; host or cells: Jurkat cell lysate
Procedure, shortened: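 ERK5 IC50 values came from percent inhibition at the screening concentration, measured as loss of LC/MS signal of probe-labelled active-site peptides. Compound was added for 15 min at room temperature to Jurkat lysate (5 mg/ml, 20 mM MnCl2) before labelling with AX9989 ATP acyl phosphate probe at 5 μM.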

[4] = molecular target: T2, TAO2 (Homo sapiens, UniProt Q9UL54); assay: Probe-based (AX9989) kinase profiling in Jurkat lysate: TAO2; assay type: binding
T2 construct: screened for activity against several kinases in Jurkat cells; endogenous in cells; host or cells: Jurkat cell lysate
T2 sequence (Q9UL54 1-1235): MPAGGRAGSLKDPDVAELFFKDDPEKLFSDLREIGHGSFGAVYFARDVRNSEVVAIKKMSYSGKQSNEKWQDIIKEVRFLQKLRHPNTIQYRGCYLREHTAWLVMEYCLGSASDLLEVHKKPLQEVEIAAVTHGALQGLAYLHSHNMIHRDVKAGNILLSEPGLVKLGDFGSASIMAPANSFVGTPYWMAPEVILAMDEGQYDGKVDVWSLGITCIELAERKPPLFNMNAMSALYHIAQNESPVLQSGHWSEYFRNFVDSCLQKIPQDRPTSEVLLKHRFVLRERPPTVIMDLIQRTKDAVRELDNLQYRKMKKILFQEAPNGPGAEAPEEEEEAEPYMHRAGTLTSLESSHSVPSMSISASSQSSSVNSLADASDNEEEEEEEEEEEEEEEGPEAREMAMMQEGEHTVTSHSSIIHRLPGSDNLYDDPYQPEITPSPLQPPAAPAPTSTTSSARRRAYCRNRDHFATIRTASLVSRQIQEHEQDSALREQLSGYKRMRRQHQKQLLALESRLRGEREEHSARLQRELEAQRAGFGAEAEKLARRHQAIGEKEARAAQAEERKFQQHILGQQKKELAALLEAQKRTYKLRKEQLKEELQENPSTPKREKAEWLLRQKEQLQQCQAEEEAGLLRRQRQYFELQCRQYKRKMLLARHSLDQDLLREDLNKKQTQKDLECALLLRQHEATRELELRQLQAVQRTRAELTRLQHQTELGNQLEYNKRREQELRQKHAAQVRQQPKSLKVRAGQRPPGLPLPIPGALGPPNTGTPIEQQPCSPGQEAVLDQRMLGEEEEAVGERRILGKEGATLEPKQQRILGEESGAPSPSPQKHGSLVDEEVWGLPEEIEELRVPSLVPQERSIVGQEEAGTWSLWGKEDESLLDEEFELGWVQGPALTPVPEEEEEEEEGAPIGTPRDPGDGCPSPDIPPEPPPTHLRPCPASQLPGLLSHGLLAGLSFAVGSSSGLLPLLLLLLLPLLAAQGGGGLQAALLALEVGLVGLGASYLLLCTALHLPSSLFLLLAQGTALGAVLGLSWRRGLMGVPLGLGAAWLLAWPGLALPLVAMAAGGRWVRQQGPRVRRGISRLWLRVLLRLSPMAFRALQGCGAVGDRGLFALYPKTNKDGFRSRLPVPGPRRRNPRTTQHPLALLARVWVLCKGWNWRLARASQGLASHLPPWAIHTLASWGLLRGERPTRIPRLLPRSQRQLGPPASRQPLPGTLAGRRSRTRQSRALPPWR
Procedure, shortened: as §1

[5] = molecular target: T3, AurA (Homo sapiens, UniProt O14965); assay: Probe-based (AX9989) kinase profiling in Jurkat lysate: AurA; assay type: binding
T3 construct: screened for activity against several kinases in Jurkat cells; endogenous in cells; host or cells: Jurkat cell lysate
T3 sequence (O14965 1-403): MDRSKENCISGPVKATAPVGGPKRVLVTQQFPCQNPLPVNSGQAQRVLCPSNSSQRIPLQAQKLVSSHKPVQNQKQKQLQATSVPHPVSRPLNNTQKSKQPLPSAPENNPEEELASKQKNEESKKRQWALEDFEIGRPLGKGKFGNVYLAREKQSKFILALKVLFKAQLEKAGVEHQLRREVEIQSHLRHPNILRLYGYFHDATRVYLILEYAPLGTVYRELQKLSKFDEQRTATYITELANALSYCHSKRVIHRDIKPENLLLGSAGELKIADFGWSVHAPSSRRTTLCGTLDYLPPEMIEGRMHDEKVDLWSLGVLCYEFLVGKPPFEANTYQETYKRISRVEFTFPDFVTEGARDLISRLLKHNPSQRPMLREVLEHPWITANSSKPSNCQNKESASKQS
Procedure, shortened: as §1

[6] = molecular target: T4, JAK1 (Homo sapiens, UniProt P23458); assay: Probe-based (AX9989) kinase profiling in Jurkat lysate: JAK1; assay type: binding
T4 construct: screened for activity against several kinases in Jurkat cells; endogenous in cells; host or cells: Jurkat cell lysate
Procedure, shortened: as §1

[7] = system: ABL or ARG; assay: Probe-based (AX9989) kinase profiling in Jurkat lysate: ABL or ARG; assay type: binding; conditions: for ABL or ARG Inhibition % at indicated screening concentration: screening concentration 1 μM
Procedure, shortened: as §1

[8] = molecular target: T5, ACK (Homo sapiens, UniProt Q07912); assay: Probe-based (AX9989) kinase profiling in Jurkat lysate: ACK; assay type: binding
T5 construct: screened for activity against several kinases in Jurkat cells; endogenous in cells; host or cells: Jurkat cell lysate
Procedure, shortened: as §1

[9] = system: AMPKa1 or AMPKa2; assay: Probe-based (AX9989) kinase profiling in Jurkat lysate: AMPKa1 or AMPKa2; assay type: binding; conditions: for AMPKa1 or AMPKa2 Inhibition % at indicated screening concentration: screening concentration 1 μM
Procedure, shortened: as §1

[10] = calculated from percent inhibition of AX9989 labeling and the screening concentration
[11] = calculated from percent inhibition and screening concentration, AX9989 probe
[12] = screening concentration 1 μM, read-out: ERK5 Inhibition % at indicated screening concentration
[13] = screening concentration 1 μM, read-out: TAO2 Inhibition % at indicated screening concentration
[14] = screening concentration 1 μM, read-out: AurA Inhibition % at indicated screening concentration
[15] = screening concentration 1 μM, read-out: JAK1 Inhibition % at indicated screening concentration
[16] = screening concentration 1 μM, read-out: ACK Inhibition % at indicated screening concentration

T4 sequence (P23458 whole entry): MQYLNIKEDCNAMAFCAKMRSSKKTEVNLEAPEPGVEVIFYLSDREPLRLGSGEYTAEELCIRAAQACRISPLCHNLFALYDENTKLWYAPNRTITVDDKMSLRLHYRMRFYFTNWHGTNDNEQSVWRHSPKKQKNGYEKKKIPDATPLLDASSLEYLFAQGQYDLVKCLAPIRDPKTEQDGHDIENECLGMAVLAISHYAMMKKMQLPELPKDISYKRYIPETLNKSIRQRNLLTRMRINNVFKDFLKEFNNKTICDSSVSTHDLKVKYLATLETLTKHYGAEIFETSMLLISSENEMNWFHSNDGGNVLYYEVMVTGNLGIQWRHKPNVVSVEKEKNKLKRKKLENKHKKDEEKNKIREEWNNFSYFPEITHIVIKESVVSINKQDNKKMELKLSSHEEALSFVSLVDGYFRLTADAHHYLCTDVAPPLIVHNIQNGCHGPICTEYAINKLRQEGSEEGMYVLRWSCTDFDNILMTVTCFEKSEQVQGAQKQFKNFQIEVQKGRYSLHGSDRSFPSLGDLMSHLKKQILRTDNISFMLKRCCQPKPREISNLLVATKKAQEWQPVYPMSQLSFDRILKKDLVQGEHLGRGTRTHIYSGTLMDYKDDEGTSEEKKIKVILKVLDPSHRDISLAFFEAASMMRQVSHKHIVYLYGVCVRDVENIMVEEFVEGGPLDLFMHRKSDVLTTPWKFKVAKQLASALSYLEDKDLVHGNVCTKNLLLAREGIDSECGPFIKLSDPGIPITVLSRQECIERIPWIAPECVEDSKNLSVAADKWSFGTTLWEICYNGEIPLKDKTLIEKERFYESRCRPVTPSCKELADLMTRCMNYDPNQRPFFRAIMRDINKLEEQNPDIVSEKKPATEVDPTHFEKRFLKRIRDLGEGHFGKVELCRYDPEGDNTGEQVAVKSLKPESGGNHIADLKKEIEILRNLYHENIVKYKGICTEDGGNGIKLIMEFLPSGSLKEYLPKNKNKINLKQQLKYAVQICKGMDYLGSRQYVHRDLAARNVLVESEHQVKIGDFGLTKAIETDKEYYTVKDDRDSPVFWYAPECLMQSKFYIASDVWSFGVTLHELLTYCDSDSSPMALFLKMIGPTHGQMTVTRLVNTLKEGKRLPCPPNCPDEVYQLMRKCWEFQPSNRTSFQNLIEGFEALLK
T5 sequence (Q07912 whole entry): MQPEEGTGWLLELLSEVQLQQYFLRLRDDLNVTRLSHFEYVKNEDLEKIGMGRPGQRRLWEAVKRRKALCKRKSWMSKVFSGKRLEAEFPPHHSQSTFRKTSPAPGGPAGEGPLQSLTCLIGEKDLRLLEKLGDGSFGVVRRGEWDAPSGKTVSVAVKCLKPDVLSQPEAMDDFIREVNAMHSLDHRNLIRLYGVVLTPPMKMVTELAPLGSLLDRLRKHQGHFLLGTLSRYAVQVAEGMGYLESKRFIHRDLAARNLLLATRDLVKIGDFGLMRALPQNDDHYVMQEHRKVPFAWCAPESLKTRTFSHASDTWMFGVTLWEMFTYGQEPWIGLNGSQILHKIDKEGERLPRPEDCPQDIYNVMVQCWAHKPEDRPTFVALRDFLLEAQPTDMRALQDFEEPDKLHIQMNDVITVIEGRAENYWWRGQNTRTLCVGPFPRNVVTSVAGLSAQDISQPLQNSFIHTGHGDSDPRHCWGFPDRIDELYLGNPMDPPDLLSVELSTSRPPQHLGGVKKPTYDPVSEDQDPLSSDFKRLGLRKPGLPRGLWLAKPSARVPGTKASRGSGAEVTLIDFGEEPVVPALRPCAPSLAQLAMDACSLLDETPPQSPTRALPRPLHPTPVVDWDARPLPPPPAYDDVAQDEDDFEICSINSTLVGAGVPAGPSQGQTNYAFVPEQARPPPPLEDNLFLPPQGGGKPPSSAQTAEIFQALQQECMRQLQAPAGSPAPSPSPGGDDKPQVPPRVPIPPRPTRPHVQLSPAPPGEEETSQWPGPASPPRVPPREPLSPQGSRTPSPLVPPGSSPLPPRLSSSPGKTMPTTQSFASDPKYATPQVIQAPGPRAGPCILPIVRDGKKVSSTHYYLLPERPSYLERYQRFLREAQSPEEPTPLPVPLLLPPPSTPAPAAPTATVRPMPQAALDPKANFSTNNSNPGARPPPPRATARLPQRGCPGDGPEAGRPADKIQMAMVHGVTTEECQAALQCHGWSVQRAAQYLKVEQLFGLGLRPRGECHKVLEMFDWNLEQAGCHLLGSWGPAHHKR
T1 sequence (Q13164 whole entry): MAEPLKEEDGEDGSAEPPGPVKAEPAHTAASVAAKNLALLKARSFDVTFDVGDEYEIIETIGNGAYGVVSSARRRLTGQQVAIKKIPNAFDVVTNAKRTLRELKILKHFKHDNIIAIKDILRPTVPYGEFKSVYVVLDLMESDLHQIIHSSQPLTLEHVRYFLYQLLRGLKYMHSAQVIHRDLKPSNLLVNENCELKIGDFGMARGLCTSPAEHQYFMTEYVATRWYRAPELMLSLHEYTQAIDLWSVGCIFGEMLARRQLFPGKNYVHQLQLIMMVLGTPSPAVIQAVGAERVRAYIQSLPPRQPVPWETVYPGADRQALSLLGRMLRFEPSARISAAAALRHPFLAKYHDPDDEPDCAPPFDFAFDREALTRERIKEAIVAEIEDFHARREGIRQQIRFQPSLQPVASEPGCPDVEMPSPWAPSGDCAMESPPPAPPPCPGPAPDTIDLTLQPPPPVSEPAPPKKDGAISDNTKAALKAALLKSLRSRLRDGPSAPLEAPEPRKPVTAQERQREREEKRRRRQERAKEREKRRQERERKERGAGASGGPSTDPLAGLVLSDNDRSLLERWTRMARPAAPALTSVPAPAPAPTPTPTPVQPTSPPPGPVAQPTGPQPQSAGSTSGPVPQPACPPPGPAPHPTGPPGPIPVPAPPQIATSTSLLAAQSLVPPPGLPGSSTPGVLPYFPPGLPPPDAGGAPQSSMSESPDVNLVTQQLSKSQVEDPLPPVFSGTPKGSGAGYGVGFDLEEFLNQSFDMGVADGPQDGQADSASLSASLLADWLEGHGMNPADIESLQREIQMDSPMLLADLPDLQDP

IC50 [3, 10] [nM] | AurB or AurC Inhibition % at indicated screening concentration [1] | IC50 [3, 11] [nM] | inhibition at 1 µM [3, 12] [%] | inhibition at 1 µM [4, 13] [%] | inhibition at 1 µM [5, 14] [%] | inhibition at 1 µM [6, 15] [%] | ABL or ARG Inhibition % at indicated screening concentration [7] | inhibition at 1 µM [8, 16] [%] | AMPKa1 or AMPKa2 Inhibition % at indicated screening concentration [9] | Structure (SMILES) | EC50 [2] [nM] | further results
 | E (E is ≦35%) | 50 to 100 | > 90 | ≤ 35 | ≤ 35 | ≤ 35 | E (E is ≦35%) | ≤ 35 | E (E is ≦35%) | CCOc1cc(C(=O)N2CCCNCC2)ccc1Nc1cc2c(cn1)N(C)C(=O)c1scnc1N2C [Compound T7] | 340 | 
 | E (E is ≦35%) | ≤ 50 | > 90 | ≤ 35 | ≤ 35 | ≤ 35 | E (E is ≦35%) | ≤ 35 | E (E is ≦35%) | CCOc1cc(C(=O)N2CCN(C3CCN(C)CC3)CC2)ccc1Nc1cc2c(cn1)N(C)C(=O)c1ccccc1N2C1CC1 [Compound T79] | 7200 | 
 | E (E is ≦35%) | ≤ 50 | > 90 | ≤ 35 | ≤ 35 | ≤ 35 | E (E is ≦35%) | 35 to 50 | E (E is ≦35%) | CN1CCN([C@@H]2CCN(C(=O)c3ccc(Nc4cc5c(cn4)N(C)C(=O)c4ccccc4N5C)c(F)c3)C2)CC1 [Compound T69] | 3480 | 

Continued, compound first:

Structure (SMILES) | IC50 [3, 10] [nM] | AurB or AurC Inhibition % at indicated screening concentration [1] | IC50 [3, 11] [nM] | inhibition at 1 µM [3, 12] [%] | inhibition at 1 µM [4, 13] [%] | inhibition at 1 µM [5, 14] [%] | inhibition at 1 µM [6, 15] [%] | ABL or ARG Inhibition % at indicated screening concentration [7] | inhibition at 1 µM [8, 16] [%] | AMPKa1 or AMPKa2 Inhibition % at indicated screening concentration [9] | EC50 [2] [nM] | further results
Cc1cc(C#N)ccc1Nc1cc2c(cn1)N(C)C(=O)c1ccccc1N2C [Compound 89] | 101 to 500 |  |  |  |  |  |  |  |  |  | 1750 | Kinase inhibition % at indicated screening concentration: AurB or AurC ([1]; screening concentration 1.0 μM): E (E is ≦35%); inhibition at 1 µM ([3]; screening concentration 1.0 μM, read-out: Kinase inhibition % at indicated screening concentration: ERK5): 50 to 75%; inhibition at 1 µM ([4]; screening concentration 1.0 μM, read-out: Kinase inhibition % at indicated screening concentration: TAO2): ≤ 35%; inhibition at 1 µM ([5]; screening concentration 1.0 μM, read-out: Kinase inhibition % at indicated screening concentration: AurA): ≤ 35%; inhibition at 1 µM ([6]; screening concentration 1.0 μM, read-out: Kinase inhibition % at indicated screening concentration: JAK1): ≤ 35%; Kinase inhibition % at indicated screening concentration: ABL or ARG ([7]; screening concentration 1.0 μM): E (E is ≦35%); inhibition at 1 µM ([8]; screening concentration 1.0 μM, read-out: Kinase inhibition % at indicated screening concentration: ACK): ≤ 35%; Kinase inhibition % at indicated screening concentration: AMPKa1 or AMPKa2 ([9]; screening concentration 1.0 μM): E (E is ≦35%)
CCOc1cc(C(=O)N2CCC(c3c[nH]cn3)CC2)ccc1Nc1cc2c(cn1)N(C)C(=O)c1ccccc1N2C [Compound 35] | 101 to 500 |  |  |  |  |  |  |  |  |  | 6000 | Kinase inhibition % at indicated screening concentration: AurB or AurC ([1]; screening concentration 0.1 μM): E (E is ≦35%); inhibition at 0.1 µM ([3]; screening concentration 0.1 μM, read-out: Kinase inhibition % at indicated screening concentration: ERK5): 35 to 50%; inhibition at 0.1 µM ([4]; screening concentration 0.1 μM, read-out: Kinase inhibition % at indicated screening concentration: TAO2): ≤ 35%; inhibition at 0.1 µM ([5]; screening concentration 0.1 μM, read-out: Kinase inhibition % at indicated screening concentration: AurA): ≤ 35%; inhibition at 0.1 µM ([6]; screening concentration 0.1 μM, read-out: Kinase inhibition % at indicated screening concentration: JAK1): ≤ 35%; Kinase inhibition % at indicated screening concentration: ABL or ARG ([7]; screening concentration 0.1 μM): E (E is ≦35%); inhibition at 0.1 µM ([8]; screening concentration 0.1 μM, read-out: Kinase inhibition % at indicated screening concentration: ACK): ≤ 35%; Kinase inhibition % at indicated screening concentration: AMPKa1 or AMPKa2 ([9]; screening concentration 0.1 μM): E (E is ≦35%)
